Results on 19 molecules are retold here after paper PMC8274062, “Promising Non-cytotoxic Monosubstituted Chalcones to Target Monoamine Oxidase-B” (ACS Medicinal Chemistry Letters, 2021).

The structures appear in SMILES notation. “And” between values parts separate entries of the source, which are not always exact repeats. Identical values can stand only once.

Assay [1] relates to HT-29 (human colorectal adenocarcinoma). The experiment in a line: Cell growth assay (trypan blue), HT-29. As to conditions: HT-29, 72 h of incubation. The format is cell-based.
Another assay addresses T1, human recombinant MAO-B (Homo sapiens, UniProt P27338).
T1 sequence (P27338 1-520): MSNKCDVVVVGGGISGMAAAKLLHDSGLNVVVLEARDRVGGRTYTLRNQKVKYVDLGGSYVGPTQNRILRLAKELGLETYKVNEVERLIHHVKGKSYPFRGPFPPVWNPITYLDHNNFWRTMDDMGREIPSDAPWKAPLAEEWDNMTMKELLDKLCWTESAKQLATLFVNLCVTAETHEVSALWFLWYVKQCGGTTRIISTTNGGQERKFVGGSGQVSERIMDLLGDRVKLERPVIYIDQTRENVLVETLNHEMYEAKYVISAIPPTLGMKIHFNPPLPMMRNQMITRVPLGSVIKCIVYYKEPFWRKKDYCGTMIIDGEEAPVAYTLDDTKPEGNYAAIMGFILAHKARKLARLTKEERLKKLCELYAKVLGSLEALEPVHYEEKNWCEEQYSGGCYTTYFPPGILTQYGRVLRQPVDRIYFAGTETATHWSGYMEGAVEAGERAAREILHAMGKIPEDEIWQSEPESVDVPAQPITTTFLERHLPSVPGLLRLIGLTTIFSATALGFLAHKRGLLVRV
Nature of the assay: Monoamine oxidase inhibition assay (Amplex Red, kynuramine), MAO-B. Conditions: for mode of inhibition: Lineweaver–Burk double-reciprocal plots, MAO-B; for Ki: read-out: Ki MAO-B, kynuramine substrate, pH 7.4, 37°C.

Another assay addresses T2, human recombinant MAO-A (Homo sapiens, UniProt P21397).
T2 sequence (P21397 1-527): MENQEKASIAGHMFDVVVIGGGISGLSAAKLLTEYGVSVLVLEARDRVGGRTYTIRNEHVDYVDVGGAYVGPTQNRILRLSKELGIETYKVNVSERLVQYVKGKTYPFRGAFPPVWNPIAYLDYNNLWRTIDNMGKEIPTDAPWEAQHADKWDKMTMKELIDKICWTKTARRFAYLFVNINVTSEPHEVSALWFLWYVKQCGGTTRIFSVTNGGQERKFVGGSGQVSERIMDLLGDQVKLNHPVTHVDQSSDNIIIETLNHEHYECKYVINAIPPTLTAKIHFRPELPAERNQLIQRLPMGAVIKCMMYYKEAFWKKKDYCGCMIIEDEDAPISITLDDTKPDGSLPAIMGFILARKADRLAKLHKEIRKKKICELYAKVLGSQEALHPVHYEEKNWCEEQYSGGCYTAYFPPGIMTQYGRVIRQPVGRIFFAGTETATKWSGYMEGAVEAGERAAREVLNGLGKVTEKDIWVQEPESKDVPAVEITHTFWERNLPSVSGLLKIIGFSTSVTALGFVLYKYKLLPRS
Nature of the assay: Monoamine oxidase inhibition assay (Amplex Red, kynuramine), MAO-A. As to conditions: read-out: Ki MAO-A; kynuramine substrate, pH 7.4, 37°C.

Assay [2] concerns A2780 (human ovarian carcinoma cells). Nature of the assay: Cell growth assay (trypan blue), A2780. Type of assay: cell-based. Conditions: A2780, 72 h of incubation.
Assay [3] has as its system Met-5A (human mesothelial cells). The experiment in a line: Cell growth assay (trypan blue), Met-5A. As to conditions: nontumorigenic Met-5A mesothelial cells. The format is cell-based. The source says: fluorescence measurements.
prepared in dimethylsulfoxide.
performed to determine cell viability.
µM of maxima concentrations tested).
The mode of inhibition was […]

Assay [4] has as its system recombinant MAO-A or MAO-B. The experiment in a line: Reversibility assay (dialysis/ultrafiltration). Type of assay: biochemical, human. Conditions: incubated at 4 times the Ki value for 20 min before dialysis.
In the next assay the test system is MAO-B. On the set-up: method as in PMID 26337020, PMID 28577983. Conditions: previously tested; ref [19],[23]; cited from earlier work.

Method for human recombinant MAO-A: (§1) Materials. Human recombinant MAO-A and MAO-B were expressed in baculovirus infected BT1 cells (5 mg/ml) and horseradish peroxidases were purchased from Fluka-Sigma-Aldrich s.r.l. (Italy). A Cary-Eclipse fluorimeter (Varian Inc., Palo Alto, CA, USA) was employed for fluorescence measurements.
(§2) Monoamine oxidase inhibition assay. Monoamine oxidase activity was determined by measuring H2O2 generation rate by a peroxidase-coupled continuous assay, using the Amplex Red reagent as fluorogenic substrate for horseradish peroxidase.1 All experiments were carried out as previously reported,2 in 100 mM potassium phosphate buffer, 0.1 mM EDTA, pH 7.4 and at 37°C. The assays were carried out in a final volume of 800 L, in the presence of Amplex Red (100 M) and horseradish peroxidase type II (5 UmL -1), and using kynuramine (20-1200 M) as common MAO-A and MAO-B substrate. h-MAO-A and h-MAO-B concentration in the assay solutions were 3 and 6 g/ml, respectively. After 5 min of pre-incubation of the enzyme with the compounds, substrate was added and the initial rates of reaction were recorded. The rates of the enzymatic reaction were determined by detecting the increase in the fluorescence intensity at
(§3) The generation rate of H2O2 was calculated from the increase of fluorescence intensity by means of calibration curves obtained using standard solution of H2O, in
M of maxima concentrations tested).
(§4) Steady state kinetic parameters (V max and K m) were calculated by fitting the Michaelis-Menten equation to the experimental data (initial velocity vs substrate concentrations), with Sigma Plot software, version 9.0 (Jandel Scientific, San Rafael, CA, USA). The mode of inhibition was determined by global fit analysis (GraphPad 9.0 software, GraphPad Software, San Diego, CA,
(§5) USA) of the initial velocity (V0) vs substrate concentration plots, at various inhibitor concentrations. The competitive, mixed, non-competitive and uncompetitive inhibition models were analysed and the fit giving the highest r2 value was chosen for the calculation of inhibition
(§6) compounds, experimental data are presented as double reciprocal Lineweaver-Burk plots (1/v vs 1/S). Ki values are expressed as mean ±S.D. All experiments were carried out at least in
Method for human recombinant MAO-B: as §1, §2, §3
M of maxima concentrations tested).
as §4, §5, §6

Take `O=C(/C=C/c1ccccc1[N+](=O)[O-])c1ccccc1` [Compound 1]: the 50% growth inhibitory concentration (GI50) in assay [1] and in assay [2] was over 20 µM in each case. Further, the mode of inhibition entry on human recombinant MAO-B is “competitive behavior”. Moreover, the results for the Ki at human recombinant MAO-B and at human recombinant MAO-A were 0.4 ± 0.08 µM and 2.2 µM, respectively.
Regarding `O=C(/C=C/c1cccc([N+](=O)[O-])c1)c1ccccc1` [Compound 2], the concentration for 50% growth inhibition (GI50) is 5 ± 1.8 µM in assay [1] and 2.8 ± 0.3 µM in assay [2]. In addition, the Ki on human recombinant MAO-B worked out at 0.071 ± 0.011 µM; on human recombinant MAO-A it was 2.5 µM.
In the case of `O=C(/C=C/c1ccc([N+](=O)[O-])cc1)c1ccccc1` [Compound 3], the GI50 stood at 15.5 ± 3.9 µM in assay [1] and 7.5 ± 1.3 µM in assay [2].
Taken in the same sequence, the figures for `O=C(/C=C/c1ccccc1C(F)(F)F)c1ccccc1` [Compound 4] were 11.7 ± 3.6 µM and 7.2 ± 0.3 µM.
Turning to `O=C(/C=C/c1cccc(C(F)(F)F)c1)c1ccccc1` [Compound 5], the GI50 in assay [1] stood at 12.7 ± 3.2 µM; in assay [2], 10 ± 0.4 µM.
Taken in the same sequence, the figures for `O=C(/C=C/c1ccc(C(F)(F)F)cc1)c1ccccc1` [Compound 6] were 12.2 ± 0.4 µM and 14 ± 0.9 µM.
For `COc1ccccc1/C=C/C(=O)c1ccccc1` [Compound 7], the 50% growth inhibitory concentration (GI50) in assay [1] stood at 13 ± 4 µM; in assay [2], 13.8 ± 0.3 µM.
Taken in the same sequence, the figures for `COc1cccc(/C=C/C(=O)c2ccccc2)c1` [Compound 8] were 14.5 ± 0.7 µM and 13.2 ± 2.2 µM.
Taken in the same sequence, the figures for `COc1ccc(/C=C/C(=O)c2ccccc2)cc1` [Compound 9] were 16.7 ± 2.5 µM and 14.4 ± 3.5 µM.
Taken in the same sequence, the figures for `O=C(/C=C/c1ccccc1)c1ccccc1[N+](=O)[O-]` [Compound 10] were 8.3 ± 1.4 µM and 5.8 ± 0.8 µM.
Regarding `O=C(/C=C/c1ccccc1)c1cccc([N+](=O)[O-])c1` [Compound 11], the figures for the GI50 in assay [1] and in assay [2] were 9 ± 0.1 µM and 4.3 ± 1.5 µM, respectively.
Taken in the same sequence, the figures for `O=C(/C=C/c1ccccc1)c1ccccc1C(F)(F)F` [Compound 12] were 10.8 ± 0.4 µM and 5.8 ± 2.9 µM.
For `O=C(/C=C/c1ccccc1)c1cccc(C(F)(F)F)c1` [Compound 13], the GI50 in assay [1], in assay [3] and in assay [2] was over 20 µM in each case. Also, the mode of inhibition entry on human recombinant MAO-B was “competitive mode of inhibition”. The Ki on human recombinant MAO-B turned out to be 0.005 ± 0.0005 µM; at human recombinant MAO-A, 4.6 µM. For the same molecule, in assay [4], the “MAO activity after dialysis (reversibility)” value was “fully recovered”.
In the case of `O=C(/C=C/c1ccccc1)c1ccc(C(F)(F)F)cc1` [Compound 14], at human recombinant MAO-B, the mode of inhibition result was “competitive behavior” and the Ki is 0.0146 ± 0.0001 µM. Further, the inhibitory constant (Ki) at human recombinant MAO-A was 9.2 µM.
As for `COc1ccccc1C(=O)/C=C/c1ccccc1` [Compound 15], the GI50 was 14.8 ± 2 µM in assay [1] and 7.3 ± 1.1 µM in assay [2]. Besides, the “inhibitory potency on MAO-B” value in the assay on MAO-B is reported as “lower inhibitory potency than for 17”.
Regarding `COc1cccc(C(=O)/C=C/c2ccccc2)c1` [Compound 16], the values for the concentration for 50% growth inhibition (GI50) in assay [1] and in assay [2] were 14.7 ± 2.5 µM and 8 ± 0.1 µM, respectively. The “inhibitory potency on MAO-B” value with MAO-B is given as “lower inhibitory potency than for 17”.
Regarding `COc1ccc(C(=O)/C=C/c2ccccc2)cc1` [Compound 17], the values for the GI50 in assay [1], in assay [3] and in assay [2] were 11.7 ± 3.7 µM, about 11.8 µM and 6.8 ± 1 µM, respectively. For the same molecule, the Ki on human recombinant MAO-B was 0.022 µM and 0.0219 µM; on human recombinant MAO-A, 13 µM.
With `O=C(/C=C/c1ccccc1)c1ccccc1` [chalcone], at human recombinant MAO-B, the mode of inhibition entry was “competitive behavior” and the inhibitory constant (Ki) came out at 0.056 ± 0.006 µM. The GI50 in assay [3] is about 7 µM. The Ki on human recombinant MAO-A turned out to be 14.6 µM.
Take `C[C@H](NCc1ccc(OCc2cccc(F)c2)cc1)C(N)=O` [safinamide, reference compound]: the GI50 in assay [1], in assay [3] and in assay [2] was over 20 µM each time. The mode of inhibition entry at human recombinant MAO-B is “standard competitive inhibitor”.
